Source: patent US20250169500A1, “METHOD AND APPARATUS FOR CONTROLLING WEEDS BY POST-HARVEST TREATMENT OF WEED SEEDS” (BAYER CROPSCIENCE LP, priority 2022, published 2025)

System: Palmer Amaranth
Assay: Field treatment of crop residue material with diluted indaziflam suspension concentrate at soybean harvest; Palmer Amaranth infestation in the next growing season
Format: in vivo
Conditions: about 1 g of indaziflam per hectare of spread crop residue material, applied at the expelling end of the seed pulverizer during harvest; assessed in the next growing season
Description: A crop of soybeans is grown infested with Palmer Amaranth. The soybean crop is grown to harvest and the Palmer amaranth is in the seed stage, just before seed drop. A combine harvester equipped with a follow-along seed pulverizer as described in WO 2009/100500 A is used to harvest the crop. The seed pulverizer is fitted with a liquid applicator at the expelling end to treat crop residue material expelled from the pulverizer with a diluted indaziflam suspension concentrate—before the expelled material touches the ground—such that the combine harvester-pulverizer deposits treated crop residue material such that the land so harvested is treated with about 1 g of indaziflam per hectare of spread crop residue material, without treating the land directly.
In the next growing season, another soybean crop has less than 10% of the volume of Palmer Amaranth compared to the present soybean harvest.

## Cc1ccc2c(c1)[C@H](Nc1nc(N)nc(C(C)F)n1)[C@@H](C)C2 (mixture of isomers) [indaziflam, 2-N-[(1R,2S)-2,3-dihydro-2,6-dimethyl-1H-inden-1-yl]-6-[(1RS)-1-fluoroethyl]-1,3,5-triazine-2,4-diamine]
  volume of Palmer Amaranth in next season's soybean crop compared to the present soybean harvest: less than 10%
